From patent publication US11912701B2, “Protein kinase inhibitors for promoting liver regeneration or reducing or preventing hepatocyte death” (HEPAREGENIX GMBH, priority 2018, dated 2024) come the findings set out here.

The term IC50 denotes the concentration that inhibits the measured activity by half.

A value given as a limit tells only on which side of the number the result lay.

Common to all, as to type: biochemical
In assay [1] the target is T1, MKK4 (Homo sapiens, UniProt P45985).
T1 construct: purchased ProQinase GmbH, Freiburg, Germany (33PanQinase Assay Service)
T1 sequence (P45985 1-399): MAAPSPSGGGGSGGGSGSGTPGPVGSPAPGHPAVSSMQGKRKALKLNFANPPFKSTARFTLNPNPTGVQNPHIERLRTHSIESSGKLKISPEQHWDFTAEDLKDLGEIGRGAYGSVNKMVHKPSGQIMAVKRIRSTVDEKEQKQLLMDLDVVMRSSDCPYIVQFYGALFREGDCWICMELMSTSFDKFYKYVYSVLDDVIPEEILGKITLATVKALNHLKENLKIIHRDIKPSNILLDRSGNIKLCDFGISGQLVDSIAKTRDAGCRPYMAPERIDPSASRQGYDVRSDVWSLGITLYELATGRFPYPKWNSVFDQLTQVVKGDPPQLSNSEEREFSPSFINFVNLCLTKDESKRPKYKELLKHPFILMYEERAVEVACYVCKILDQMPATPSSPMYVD
In words: 33PanQinase enzyme assay, MKK4. The note with it: assay 'IC50'; read-out: Potency MKK4 (IC50). The essentials: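 Inhibition measured as 33Pi transfer to substrate after a 60-min, 30 °C reaction, acid-stopped and scintillation-counted.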

Assay [2] deals with T2, BRaf (Homo sapiens, UniProt P15056).
T2 construct: purchased ProQinase GmbH, Freiburg, Germany (33PanQinase Assay Service)
Put plainly: 33PanQinase enzyme assay, BRaf. The note with it: ratio IC50(BRaf)/IC50(MKK4). The essentials:
(§1)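 33Pi incorporation, read by microplate scintillation counting, measured kinase activity after 60 min at 30 °C. Reactions were quenched with 2% (v/v) H3PO4 and washed with 0.9% NaCl. IC50 derived by least-squares fitting; single doses reported as % residual activity.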

Assay [3] has as its target JNK1 (Homo sapiens, UniProt P45983). Put plainly: 33PanQinase enzyme assay, JNK1. The arrangement: purchased ProQinase GmbH, Freiburg, Germany (33PanQinase Assay Service). Particulars: ratio IC50(JNK1)/IC50(MKK4). The procedure, abridged: as §1
The target of assay [4] is T3, MKK7 (Homo sapiens, UniProt O14733).
T3 sequence (O14733 1-419): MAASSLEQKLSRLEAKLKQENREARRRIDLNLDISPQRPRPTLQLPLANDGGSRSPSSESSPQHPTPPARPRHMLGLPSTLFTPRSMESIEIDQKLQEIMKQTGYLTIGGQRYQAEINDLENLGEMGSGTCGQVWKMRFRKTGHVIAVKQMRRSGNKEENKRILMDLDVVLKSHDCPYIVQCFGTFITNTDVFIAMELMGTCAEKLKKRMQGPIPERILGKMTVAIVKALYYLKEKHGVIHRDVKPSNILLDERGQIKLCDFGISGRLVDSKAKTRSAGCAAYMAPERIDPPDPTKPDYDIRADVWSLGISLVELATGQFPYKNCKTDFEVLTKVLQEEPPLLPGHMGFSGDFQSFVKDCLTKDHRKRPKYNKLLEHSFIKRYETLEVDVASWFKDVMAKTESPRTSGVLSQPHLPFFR
In words: 33PanQinase enzyme assay, MKK7. Particulars: ratio IC50(MKK7)/IC50(MKK4). The arrangement: purchased ProQinase GmbH, Freiburg, Germany (33PanQinase Assay Service). The procedure, abridged: as §1

Chain of JNK1 (P45983 whole entry): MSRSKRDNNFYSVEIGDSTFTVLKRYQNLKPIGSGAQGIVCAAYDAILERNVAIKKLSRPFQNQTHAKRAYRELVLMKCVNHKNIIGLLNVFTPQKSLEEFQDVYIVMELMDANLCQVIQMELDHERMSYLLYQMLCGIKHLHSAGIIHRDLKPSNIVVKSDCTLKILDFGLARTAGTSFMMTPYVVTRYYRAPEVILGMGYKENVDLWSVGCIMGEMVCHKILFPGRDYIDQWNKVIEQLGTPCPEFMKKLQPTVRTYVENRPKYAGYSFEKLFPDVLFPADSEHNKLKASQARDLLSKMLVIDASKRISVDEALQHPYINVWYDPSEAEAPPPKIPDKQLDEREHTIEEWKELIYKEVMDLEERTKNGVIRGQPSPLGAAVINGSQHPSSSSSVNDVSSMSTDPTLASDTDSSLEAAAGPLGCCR
T2 sequence (P15056 whole entry, species assumed): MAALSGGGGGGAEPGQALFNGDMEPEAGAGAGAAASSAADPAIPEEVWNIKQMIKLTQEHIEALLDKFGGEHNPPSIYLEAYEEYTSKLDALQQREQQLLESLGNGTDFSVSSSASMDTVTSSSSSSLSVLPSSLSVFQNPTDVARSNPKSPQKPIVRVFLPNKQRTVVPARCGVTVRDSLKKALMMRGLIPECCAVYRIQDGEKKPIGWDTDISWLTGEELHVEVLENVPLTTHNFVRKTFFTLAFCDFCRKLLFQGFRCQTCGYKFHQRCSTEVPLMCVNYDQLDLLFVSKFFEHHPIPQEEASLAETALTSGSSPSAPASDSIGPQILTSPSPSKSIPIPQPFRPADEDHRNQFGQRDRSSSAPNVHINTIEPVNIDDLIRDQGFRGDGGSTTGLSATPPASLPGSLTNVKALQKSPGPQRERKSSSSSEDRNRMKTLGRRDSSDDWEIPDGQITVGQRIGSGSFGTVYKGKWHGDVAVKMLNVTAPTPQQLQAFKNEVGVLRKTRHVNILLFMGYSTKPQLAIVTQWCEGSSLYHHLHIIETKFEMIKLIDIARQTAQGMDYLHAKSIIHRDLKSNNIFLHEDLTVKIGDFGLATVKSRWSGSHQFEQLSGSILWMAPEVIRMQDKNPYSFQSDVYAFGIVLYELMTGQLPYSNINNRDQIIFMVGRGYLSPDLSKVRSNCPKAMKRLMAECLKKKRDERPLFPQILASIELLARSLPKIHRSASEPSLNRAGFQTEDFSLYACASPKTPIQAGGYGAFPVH

Take `CCCS(=O)(=O)Nc1c(F)ccc(C(=O)c2c[nH]c3ncc(-c4cnc(N(C)CCO)nc4)cc23)c1F` [Example 202, N-(2,6-difluoro-3-(5-(2-((2-hydroxyethyl)(methyl)amino)pyrimidin-5-yl)-1H-pyrrolo[2,3-b]pyridine-3-carbonyl)phenyl)propane-1-sulfonamide]: in assay [1], the IC50 was less than 0.1 µM. The “Selectivity Braf, IC50(off-target)/IC50(MKK4)” value (from here on “Selectivity Braf”) in assay [2] is “++ (100 ≥ IC50(off-target)/IC50(MKK4) > 10)”. The “Selectivity JNK1, IC50(off-target)/IC50(MKK4)” value (shortened to “Selectivity JNK1”) in assay [3] is recorded as “+++ (IC50(off-target)/IC50(MKK4) > 100)”. Moreover, the “Selectivity IVIKK7, IC50(off-target)/IC50(MKK4)” value (“Selectivity IVIKK7” below) in assay [4] was “+++ (IC50(off-target)/IC50(MKK4) > 100)”.
Turning to `CCCS(=O)(=O)Nc1c(F)ccc(C(=O)c2c[nH]c3ncc(-c4cnc(N5CC[C@H](O)C5)nc4)cc23)c1F` [Example 203, (S)-N-(2,6-difluoro-3-(5-(2-(3-hydroxypyrrolidin-1-yl)pyrimidin-5-yl)-1H-pyrrolo[2,3-b]pyridine-3-carbonyl)phenyl)propane-1-sulfonamide], the IC50 in assay [1] is less than 0.1 µM. Also, in assay [2], the “Selectivity Braf” value is “++ (100 ≥ IC50(off-target)/IC50(MKK4) > 10)”. For the same compound, the “Selectivity JNK1” value in assay [3] is reported as “+++ (IC50(off-target)/IC50(MKK4) > 100)”. The “Selectivity IVIKK7” value in assay [4] is given as “+++ (IC50(off-target)/IC50(MKK4) > 100)”.
As for `CCCS(=O)(=O)Nc1c(F)ccc(C(=O)c2c[nH]c3ncc(-c4cnc(N5CC[C@@H](O)C5)nc4)cc23)c1F` [Example 204, (R)-N-(2,6-difluoro-3-(5-(2-(3-hydroxypyrrolidin-1-yl)pyrimidin-5-yl)-1H-pyrrolo[2,3-b]pyridine-3-carbonyl)phenyl)propane-1-sulfonamide], the IC50 in assay [1] fell in the range of 0.1 to 1 µM. Besides, the “Selectivity Braf” value in assay [2] was “++ (100 ≥ IC50(off-target)/IC50(MKK4) > 10)”. In assay [3], the “Selectivity JNK1” value is “+++ (IC50(off-target)/IC50(MKK4) > 100)”. In assay [4], the “Selectivity IVIKK7” value is recorded as “+++ (IC50(off-target)/IC50(MKK4) > 100)”.
As to `CCCS(=O)(=O)Nc1c(F)ccc(C(=O)c2c[nH]c3ncc(-c4cnc(N5CC(O)C5)nc4)cc23)c1F` [Example 205, N-(2,6-difluoro-3-(5-(2-(3-hydroxyazetidin-1-yl)pyrimidin-5-yl)-1H-pyrrolo[2,3-b]pyridine-3-carbonyl)phenyl)propane-1-sulfonamide], in assay [1], the IC50 was in the range of 0.1 to 1 µM. For the same compound, the “Selectivity Braf” value in assay [2] is reported as “++ (100 ≥ IC50(off-target)/IC50(MKK4) > 10)”. The “Selectivity JNK1” value in assay [3] is given as “++ (100 ≥ IC50(off-target)/IC50(MKK4) > 10)”. For the same compound, the “Selectivity IVIKK7” value in assay [4] was “+++ (IC50(off-target)/IC50(MKK4) > 100)”.
As for `CCCS(=O)(=O)Nc1c(F)ccc(C(=O)c2c[nH]c3ncc(-c4cnc(CC)nc4)cc23)c1F` [Example 206, N-(3-(5-(2-ethylpyrimidin-5-yl)-1H-pyrrolo[2,3-b]pyridine-3-carbonyl)-2,6-difluorophenyl)propane-1-sulfonamide], the IC50 in assay [1] was less than 0.1 µM. In addition, in assay [2], the “Selectivity Braf” value is on record as “+++ (IC50(off-target)/IC50(MKK4) > 100)”. Further, in assay [3], the “Selectivity JNK1” value is listed as “+++ (IC50(off-target)/IC50(MKK4) > 100)”. In addition, in assay [4], the “Selectivity IVIKK7” value is “+++ (IC50(off-target)/IC50(MKK4) > 100)”.
Take `CCCS(=O)(=O)Nc1c(F)ccc(C(=O)c2c[nH]c3ncc(-c4cnc(CF)nc4)cc23)c1F` [Example 207, N-(2,6-difluoro-3-(5-(2-(fluoromethyl)pyrimidin-5-yl)-1H-pyrrolo[2,3-b]pyridine-3-carbonyl)phenyl)propane-1-sulfonamide]: the IC50 in assay [1] is 0.1 to 1 µM. Besides, the “Selectivity Braf” value in assay [2] is reported as “+++ (IC50(off-target)/IC50(MKK4) > 100)”. For the same compound, the “Selectivity JNK1” value in assay [3] is listed as “++ (100 ≥ IC50(off-target)/IC50(MKK4) > 10)”. In addition, in assay [4], the “Selectivity IVIKK7” value is “+++ (IC50(off-target)/IC50(MKK4) > 100)”.
Turning to `C#Cc1ncc(-c2cnc3[nH]cc(C(=O)c4ccc(F)c(NS(=O)(=O)CCC)c4F)c3c2)cn1` [Example 208, N-(3-(5-(2-ethynylpyrimidin-5-yl)-1H-pyrrolo[2,3-b]pyridine-3-carbonyl)-2,6-difluorophenyl)propane-1-sulfonamide], the IC50 in assay [1] is less than 0.1 µM. The “Selectivity Braf” value in assay [2] is “++ (100 ≥ IC50(off-target)/IC50(MKK4) > 10)”. In addition, in assay [3], the “Selectivity JNK1” value is listed as “+++ (IC50(off-target)/IC50(MKK4) > 100)”. In addition, the “Selectivity IVIKK7” value in assay [4] was “++ (100 ≥ IC50(off-target)/IC50(MKK4) > 10)”.
With `CCCS(=O)(=O)Nc1c(F)ccc(C(=O)c2c[nH]c3ncc(-c4cnc(-c5ccc6nc[nH]c6c5)nc4)cc23)c1F` [Example 210, N-(3-(5-(2-(1H-benzo[d]imidazol-6-yl)pyrimidin-5-yl)-1H-pyrrolo[2,3-b]pyridine-3-carbonyl)-2,6-difluorophenyl)propane-1-sulfonamide], the IC50 in assay [1] lay within 1 to 10 µM. The “Selectivity Braf” value in assay [2] is on record as “++ (100 ≥ IC50(off-target)/IC50(MKK4) > 10)”. Moreover, the “Selectivity JNK1” value in assay [3] is listed as “+ (10 ≥ IC50(off-target)/IC50(MKK4) > 3)”. Also, in assay [4], the “Selectivity IVIKK7” value is given as “++ (100 ≥ IC50(off-target)/IC50(MKK4) > 10)”.
Consider `Nc1c(F)ccc(C(=O)c2c[nH]c3ncc(-c4ccc(Cl)cc4)cc23)c1F` [Example 212, (3-amino-2,4-difluorophenyl)(5-(4-chlorophenyl)-1H-pyrrolo[2,3-b]pyridin-3-yl)methanone], for which the IC50 in assay [1] lay in the range of 0.1 to 1 µM. In assay [2], the “Selectivity Braf” value was “+ (10 ≥ IC50(off-target)/IC50(MKK4) > 3)”. The “Selectivity JNK1” value in assay [3] is reported as “◯ (3 ≥ IC50(off-target)/IC50(MKK4))”. Besides, in assay [4], the “Selectivity IVIKK7” value was “+++ (IC50(off-target)/IC50(MKK4) > 100)”.
For `CCCS(=O)(=O)Nc1c(F)ccc(C(=O)c2c[nH]c3ncc(-c4ccccc4Cl)cc23)c1F` [Example 213, N-(3-(5-(2-chlorophenyl)-1H-pyrrolo[2,3-b]pyridine-3-carbonyl)-2,6-difluorophenyl)propane-1-sulfonamide], in that order: less than 0.1 µM, “+++ (IC50(off-target)/IC50(MKK4) > 100)”, “++ (100 ≥ IC50(off-target)/IC50(MKK4) > 10)” and “+++ (IC50(off-target)/IC50(MKK4) > 100)”.
`CS(=O)(=O)Nc1c(F)ccc(C(=O)c2c[nH]c3ncc(-c4cccc5ccccc45)cc23)c1F` [Example 214, N-(2,6-difluoro-3-(5-(naphthalen-1-yl)-1H-pyrrolo[2,3-b]pyridine-3-carbonyl)phenyl)methanesulfonamide]: in assay [1], the IC50 is 0.1 to 1 µM. Further, in assay [2], the “Selectivity Braf” value is “+++ (IC50(off-target)/IC50(MKK4) > 100)”. The “Selectivity JNK1” value in assay [3] is “++ (100 ≥ IC50(off-target)/IC50(MKK4) > 10)”. For the same compound, in assay [4], the “Selectivity IVIKK7” value is recorded as “+++ (IC50(off-target)/IC50(MKK4) > 100)”.
Turning to `CCCS(=O)(=O)Nc1c(F)ccc(C(=O)c2c[nH]c3ncc(-c4ccccc4C)cc23)c1F` [Example 215, N-(2,6-difluoro-3-(5-(o-tolyl)-1H-pyrrolo[2,3-b]pyridine-3-carbonyl)phenyl)propane-1-sulfonamide], the IC50 in assay [1] lay in the range of 0.1 to 1 µM. Also, in assay [2], the “Selectivity Braf” value is “◯ (3 ≥ IC50(off-target)/IC50(MKK4))”. Also, the “Selectivity JNK1” value in assay [3] is “+ (10 ≥ IC50(off-target)/IC50(MKK4) > 3)”. Moreover, the “Selectivity IVIKK7” value in assay [4] is “+++ (IC50(off-target)/IC50(MKK4) > 100)”.
For `CCCS(=O)(=O)Nc1c(F)ccc(C(=O)c2c[nH]c3ncc(-c4ccc(F)cc4)cc23)c1F` [Example 216, N-(2,6-difluoro-3-(5-(4-fluorophenyl)-1H-pyrrolo[2,3-b]pyridine-3-carbonyl)phenyl)propane-1-sulfonamide], in that order: less than 0.1 µM, “+++ (IC50(off-target)/IC50(MKK4) > 100)”, “+++ (IC50(off-target)/IC50(MKK4) > 100)” and “+++ (IC50(off-target)/IC50(MKK4) > 100)”.
